Experiments:
[1] = test system: clozapine N-demethylation; settings: cited from earlier work
[2] = male, human, in vivo
Experimental: A patient suffering from schizo-affective disorder and from dual personality disorder reacts correctly to clozapine (clozaril, 600 mg/day, blood concentration: 502 ng/mL). They are also treated with lithium (eskalith, 900 mg/day). […] After 11 days the patient had to be admitted to the emergency department because they had too high a blood level of clozapine (2112 ng/mL).
Thus, the DEM will transfer the pharmacogenetic data from the DGSB. It will find, according to the pharmacokinetic data and studies on clozapine-fluvoxamine interaction, an appropriate function and the corresponding statistical values. […] The dosage of fluvoxamine is sought to be maintained constant. Still with reference to FIG. 3, the straight line which is of interest therefore, is that for which the blood level is 5 μM. […] The equation of this straight line (according to data taken from a publication) is y=3.7×/1.8 ? x=1.8y/3.7. Therefore if y=502 ng/mL then x=502*1.8/3.7=244 ng/mL. This means that the current dosage would need to be reduced by at least a half in order to avoid too great an interaction between the two products and especially to prevent a worrying blood level of clozapine in the blood. This optimization reasoning will be carried out by the OS as a function of the data which are sent to it by the DEM.

Structure (SMILES) | clozapine N-demethylation inhibitor strength [1] | clozapine blood level x calculated from straight line x=1.8y/3.7 for y=502 ng/mL [2]
COCCCC/C(=N\OCCN)c1ccc(C(F)(F)F)cc1 [fluvoxamine] | strong | –
CN1CCN(C2=Nc3cc(Cl)ccc3Nc3ccccc32)CC1 [clozapine] | – | 244 ng/mL

From patent publication US20060289019A1, “Information method and system for generating data for optimizing a medical treatment, and equipment used in this system” (IPPM HOLDING SA, priority 2005, published 2006)
